Test results reported in patent US5426104A, “Tricyclic carbapenem compounds, methods of preparation and methods of use” (Glaxo SpA, priority 1991, dated 1995).
Values after ≈ are worked out from the molar mass of the structure shown.

Assays:
S faecalis 850E = assay: standard microtiter broth serial dilution test, S faecalis 850E; conditions: 18 h
Experimental: (§2) For example the antibacterial activity of the compounds of the invention was determined using a standard microtiter broth serial dilution test. In this test the broth was incubated with approximately 10^5 colony forming units of the test organism and incubated at 35° for 18 hours in the presence of test compound.

P aeruginosa 1911E = assay: standard microtiter broth serial dilution test, P aeruginosa 1911E; conditions: 18 h
Experimental: as §2

E cloacae 3647 = assay: standard microtiter broth serial dilution test, E cloacae 3647; conditions: 18 h
Experimental: as §2

E coli 1852E = conditions: 18 h
Experimental: as §2

S aureus 663E = assay: standard microtiter broth serial dilution test, S aureus 663E; conditions: 18 h
Experimental: as §2

B fragilis 2017E = assay: standard microtiter broth serial dilution test, B fragilis 2017E; conditions: 18 h
Experimental: as §2

[1] = intravenous administration to the rat, adverse effects; assay type: in vivo; conditions: 500 mg/kg intravenously
From the text: (§1) The compounds of the invention are essentially non-toxic at therapeutically useful doses.

[2] = intravenous administration to the mouse, adverse effects; assay type: in vivo; conditions: 500 mg/kg intravenously
From the text: as §1

| SMILES | MIC (S faecalis 850E) | MIC (P aeruginosa 1911E) | MIC (E cloacae 3647) | MIC (E coli 1852E) | MIC (S aureus 663E) | MIC (B fragilis 2017E) | adverse effects [1] | adverse effects [2] |
| --- | --- | --- | --- | --- | --- | --- | --- | --- |
| CN=CN[C@H]1CCC[C@H]2C1=C(C(=O)O)N1C(=O)[C@H]([C@@H](C)O)[C@@H]21 [Example 2, (4 S,8S,9R,10S,12R)-4-[(3'-methyl)formamidino)-10-(1-hydroxyethyl)-11-oxo-1-azatricyclo[7.2.0.0^3.^8]undec-2-ene-2-carboxylic acid] | 16 µg/mL (≈ 52.1 µM) | 16 µg/mL (≈ 52.1 µM) | 4 µg/mL (≈ 13 µM) | 2 µg/mL (≈ 6.51 µM) | 0.1 µg/mL (≈ 0.325 µM) | 0.5 µg/mL (≈ 1.63 µM) |  |  |
| C[C@@H](O)[C@H]1C(=O)N2C(C(=O)O)=C3[C@H](CCC[C@@H]3N(C)C=N)[C@H]12 [Example 1, (4S,8S,9R,10S,12R)-4-(N-methylformamidino)-10-(1-hydroxyethyl)-11-oxo-1-azatricyclo[7.2.0.0^3.^8]undec-2-ene-2-carboxylic acid] | 1 µg/mL (≈ 3.25 µM) | 8 µg/mL (≈ 26 µM) | 1 µg/mL (≈ 3.25 µM) | 0.5 µg/mL (≈ 1.63 µM) | 0.1 µg/mL (≈ 0.325 µM) | 0.2 µg/mL (≈ 0.651 µM) | no adverse effects were observed | no adverse effects were observed |
